Values joined by “and” are separate entries in the source; they are usually repeats but may differ in a detail not shown here. Identical values can stand only once. Square brackets hold non-standard residues; d marks the D form. Peptide text beside a SMILES is read from it. Ala(indol-4-yl) = N[C@@H](Cc1cccc2[nH]ccc12)C(=O)O; NMeR = CN[C@@H](CCCNC(=N)N)C(=O)O; Tle = CC(C)(C)[C@H](N)C(=O)O
Legend:
[1] = target: α2-adrenergic receptors; experiment: Radiolabeled competitive binding, human brain tissue, adrenergic α2
[2] = Catalepsy bar test in rats; assay type: in vivo, rat
Protocol: The following experiments were performed to assess the ability of NT69L to cause and influence catalepsy. Male Sprague-Dawley rats (150–250 g) or CD-1 mice (24–26 g) were housed in a temperature-controlled room in groups of five with free access to food and water. The animals were kept on a 12 hour light/dark cycle, and all tests were performed during the light cycle. […] Thirty minutes after injection, the animals were tested for catalepsy. For rats, the test involved simply placing the animal's fore paws on a suspended metal bar 10 mm in diameter, 11 cm above the counter. The time elapsed until the animal's fore paws touch the counter was recorded. […] The cut-off time was 20 seconds, and each animal was tested three times for each time point.

[3] = target: 5HT2A receptor (Homo sapiens, UniProt P28223); experiment: Competitive binding with [3H]ketanserin, human brain tissue
[4] = target: T1, rat NTR1 (Rattus norvegicus, UniProt P20789); experiment: Competition binding with [3H]NT, membranes of CHO-K1 cells transfected with rat NTR1
T1 construct: expressed in transfected cells; host or cells: CHO-K1

[5] = target: T2, human NTR1 (Homo sapiens, UniProt P30989); experiment: PI turnover ([3H]IP1) in intact CHO-K1 cells, human NTR1; assay type: cell-based
T2 construct: expressed in transfected cells; host or cells: CHO-K1
Protocol: (§1) To measure PI turnover, intact CHO-K1 cells were harvested at about 80% confluency. Cells were detached from the petri plates by removal of culture medium followed by incubation of the cellular monolayer for 20 minutes at 37° C. with gentle shaking in a modified Puck's D1 solution containing 2 mM EGTA. […] Briefly, intact CHO cells were prelabeled with D-myo-[^3H]inositol (18.3 Ci/mmol) in the presence of lithium chloride (final concentration, 10 mM). […] For the experiments described herein, the stimulation time was 30 minutes, and the number of CHO cells per assay tube was 1.5×10^5.

[6] = Body temperature (hypothermia) in rats; conditions: for change in body temperature: 5 mg/kg ip
[7] = Hot plate test (antinociception, % MPE) in rats
[8] = target: T1, rat NTR1; experiment: PI turnover ([3H]IP1) in intact CHO-K1 cells, rat NTR1; assay type: cell-based
Protocol: as §1

[9] = Apomorphine-induced climbing, sniffing and licking behavior in rats; assay type: in vivo, rat
Protocol: Apomorphine was used to assess the ability of NT analogs to act as neuroleptics. Briefly, male Sprague-Dawley rats were pretreated intraperitoneally with either NT69L or saline only. Thirty minutes following pretreatment, the rats received a subcutaneous injection of apomorphine (600 μg/kg). Occasionally, the effectiveness of NT69L was assessed by measuring antinociception and hypothermia just prior to apomorphine administration. Control animals included rats receiving NT69L followed by saline only, and rats receiving no treatment. The apomorphine was dissolved in oxygen-free boiled 0.9% NaCl solution containing 0.1% ascorbic acid and 0.1% metabisulfite to prevent oxidation. The volume of injection was 1 mL/kg under the loose skin at the back of the animal's neck. Inunediately following injection, the rats were placed in cages for observation. About 5–10 minutes later, behavioral monitoring was initiated and lasted for one hour. Climbing episodes were measured by observing the number of times the rat moved up and down in a vertical position during a two minute observation period. Statistical analysis was done using the Student's t-test with P<0.05 being considered significant. Graphs and ED50 data were generated using GraphPad Prism® software (version 2.01, GraphPad Software, Inc., San Diego, Calif.).

[10] = Degradation in human plasma (HPLC peak area); assay type: in vitro ADME; conditions: human; 25% plasma, 37° C., 0.5 mg/mL polypeptide; read-out: half-time, Plasma Human (converted)
Source text: For the degradation studies, data were plotted in linear form as a semi-log plot with SigmaPlot for Windows Version 4.00. Linear regression on these plots provided the parameters used to calculate the half-time (t1/2) for degradation of each polypeptide. The correlation coefficient (R) for the linear regression was taken as a measure of the goodness-of-fit.

[11] = 5 mg/kg ip after four days at 1 mg/kg ip
[12] = intraperitoneal administration (NT64L 1 mg/kg)
[13] = 1 mg/kg ip, 30 minutes before apomorphine

In the case of `CN[C@@H](CCCNC(=N)N)C(=O)N[C@@H](CCCCN)C(=O)N1CCC[C@H]1C(=O)N[C@@H](Cc1cccc2[nH]ccc12)C(=O)N[C@H](C(=O)N[C@@H](CC(C)C)C(=O)O)C(C)(C)C` [NT69L] (H-[NMeR]KP[Ala(indol-4-yl)][Tle]L-OH; N-terminus and C-terminus assumed), the Kd [1] is reported as 58600 nM, the “catalepsy scores in rats” value ([2]; 5 mg/kg ip) is reported as “no effect on catalepsy scores” and the “haloperidol-induced catalepsy, test compound given after” value ([2]; 5 mg/kg ip 30 minutes after haloperidol 1 mg/kg ip) is reported as “reversed”. The “haloperidol-induced catalepsy, test compound given before” value ([2]; 5 mg/kg ip 30 minutes before haloperidol 1 mg/kg ip) was “did not exhibit significant cataleptic behavior”, the “catalepsy on haloperidol injection after chronic treatment” value ([2]; after the third and fourth days of NT69L 1 mg/kg ip) was “exhibited catalepsy” and the “ED50 reversal of haloperidol-induced catalepsy” value ([2]; haloperidol 120 μg/kg ip, NT69L ip 40 minutes later, scored at 130 minutes) was 0.26 mg/kg. The Kd [3] was 34600 nM, the Kd [4] was 0.82 ± 0.07 nM and the “increase in binding affinity at the rat receptor versus Eisai” value [4] was 6 fold. For the same compound, the EC50 [5] was 2.3 nM, the “improvement in potency at PI turnover versus Eisai, human NTR1” value [5] was “about 130 fold” and the “time up to which body temperature reduction remained significant” value ([6]; 1 mg/kg intraperitoneal) was “up to 300 minutes”. The “Peak BT change” value ([6]; 1 mg/kg intraperitoneal, rats) was −5.3 °C and −5.3 @ ° C, the “body temperature lowering after the first injection” value ([6]; 1 mg/kg ip daily, day 1) was “about 4 degrees” and the “body temperature lowering after the second injection” value ([6]; 1 mg/kg ip daily, day 2) was 1.5 degrees. The “body temperature lowering after the third injection” value ([6]; 1 mg/kg ip daily, day 3) was “no body temperature lowering was detected”, the “reduction in body temperature on 5× challenge” value [6, 11] was “comparable to the reduction normally observed in naive rats” and the “change in body temperature” value ([6]; 30 minutes after injection) was “about −3 °C”. The “change in body temperature” value ([6]; 77 minutes after injection) was “about −4 °C”, the induction of hypothermia [6, 12] was “did induce” and the “ED50 BT” value ([6]; intraperitoneal, @ 90 min) was 0.4 mg/kg. For the same compound, the “peak reduction in body temperature” value ([6]; intraperitoneal, dose not restated) was 5.3 °C, the “ED50 body temperature lowering” value ([6]; ip, at 90 minutes) was 0.39 mg/kg and the “peak reduction in body temperature (change)” value ([6]; nasal, 5 mg/kg, at 30 minutes) was −1.4 °C. The “peak reduction in body temperature (change)” value ([6]; oral, 20 mg/kg) was −0.63 °C, the “time of peak reduction in body temperature” value ([6]; oral, 20 mg/kg) was 60 min and the “time up to which peak % MPE of 100% was observed” value ([7]; 1 mg/kg intraperitoneal) was “about 200 minutes”. The “time of Peak % MPE” value ([7]; 1 mg/kg intraperitoneal, rats) was 300 min, the “% MPE after the first injection” value ([7]; 1 mg/kg ip daily, day 1) was 100% and the “analgesic effect after the second injection” value ([7]; 1 mg/kg ip daily, day 2) was “no analgesic effect”. For the same compound, the “analgesic effect after the third injection” value ([7]; 1 mg/kg ip daily, day 3) was “no analgesic effect”, the “analgesic effect on 5× challenge” value [7, 11] was “no analgesic effect” and the “induction of antinociception (hot plate)” value [7, 12] was “did induce”. The “ED50 % MPE” value ([7]; intraperitoneal, @ 90 min) was 0.3 mg/kg, the “peak % MPE value” ([7]; nasal, 5 mg/kg, at 60 minutes) was 70% and the “peak % MPE value” ([7]; oral, 20 mg/kg) was 11%. The “time of Peak % MPE” value ([7]; oral, 20 mg/kg) was 30 min, the EC50 [8] was 1.34 ± 0.02 nM and the “improvement in potency at PI turnover versus Eisai, rat NTR1” value [8] was “about two fold”. The “effect on apomorphine-induced climbing behavior” value [9, 13] was “long-lasting blockade of the climbing behavior”, the “effect on apomorphine-induced sniffing and licking behaviors” value [9, 13] was “did not influence” and the “effect on apomorphine-induced climbing behavior” value ([9]; 5 mg/kg ip) was “completely blocked”. For the same compound, the “ED50 blockade of apomorphine-induced climbing” value ([9]; ip, 75 minutes after NT69L, 45 minutes after apomorphine 600 μg/kg sc) was 0.016 mg/kg and the half-life at 0.5 mg/mL [10] was 20.8 days.

From patent US7098307B2, “Neo-tryptophan” (Mayo Foundation for Medical Education and Research, priority 1998, dated 2006)
